The results in this text go back to publication PMC11301756, “The crystal structure of Shethna protein II (FeSII) from Azotobacter vinelandii suggests a domain swap” (Acta Crystallographica Section D: Structural Biology, 2024).

For data set [1], the target named is T1, FeSII (Shethna protein II) (Azotobacter vinelandii, UniProt Q44501).
T1 construct: synthetic gene in pRSET-A, no tag, expressed in E. coli KRX; about 13 kDa; dimer in solution; prepared aerobically (oxidized)
T1 sequence (Q44501 2-122 limits assumed): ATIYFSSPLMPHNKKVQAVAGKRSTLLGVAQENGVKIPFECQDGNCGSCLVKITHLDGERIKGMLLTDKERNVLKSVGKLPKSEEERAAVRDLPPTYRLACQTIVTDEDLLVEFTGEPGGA
Put plainly: X-ray crystal structure (Fe-SAD). The format is binding. The following applies: intrinsic cluster, protein prepared and crystallized aerobically (oxidized); pH 8.0; five copies in asymmetric unit, one closed and four open (domain-swapped).

Data set [2] concerns the molecule itself. Put plainly: crystal structure; FeSII alone, hanging-drop vapour diffusion, 0.1 M HEPES pH 8.0, 0.2 M sodium citrate, 24% PEG 3350, 2% 1-butanol, 40 mg/ml FeSII; P2(1)2(1)2, 1.65 Å, Fe-SAD; dimers between chains and crystallographic symmetry mates.

Turning to `[S]1[Fe][S][Fe]1` [2Fe–2S cluster], in data set [1], the “X-ray crystal structure (Fe-SAD), 1.65 A” value is recorded as “In chain E (salmon) in the crystal, the lid helix from chain E covers the iron–sulfur cluster”.

B1: Shethna protein II (FeSII) from Azotobacter vinelandii (natural protein, UniProt Q44501 1-122, looked up)
chain: MATIYFSSPLMPHNKKVQAVAGKRSTLLGVAQENGVKIPFECQDGNCGSCLVKITHLDGERIKGMLLTDKERNVLKSVGKLPKSEEERAAVRDLPPTYRLACQTIVTDEDLLVEFTGEPGGA
notes: FeSII (Shethna protein II), adrenodoxin-type 2Fe-2S ferredoxin of Azotobacter vinelandii, locus AVIN_39700; synthetic gene in pRSET-A with no tag, amplified with primers from the start codon (ATGGCGACGATCTATTTCAGCAGC) to the stop codons; Carries a 2Fe-2S cluster; prepared aerobically (oxidized); Five copies in the asymmetric unit of the crystal; also called FeSII protein; source: E. coli …
On to B1, for which the binding result in data set [2] was “binds”.
